ChEMBL document CHEMBL5463725, “Data for DCP probe BAY-277” (2023)

Columns and labels:
[1] = biological target: Muscarinic acetylcholine receptor M3 (Homo sapiens, UniProt P20309); settings: Compound concentration 10.0 uM
[2] = biological target: Sodium-dependent dopamine transporter (Homo sapiens, UniProt Q01959); settings: Compound concentration 10.0 uM
[3] = biological target: cGMP-specific 3',5'-cyclic phosphodiesterase (Homo sapiens) (UniProt O76074); test: Inhibition of Phosphodiesterase PDE5A at 10.0 µM in the Eurofins Panlabs Safety Screen; settings: Compound concentration 10.0 uM
[4] = biological target: T1, Alpha-2C adrenergic receptor (Homo sapiens) (UniProt P18825); test: Inhibition of Adrenergic alpha2C at 10.0 µM in the Eurofins Panlabs Safety Screen; settings: Compound concentration 10.0 uM
T1 sequence (whole entry): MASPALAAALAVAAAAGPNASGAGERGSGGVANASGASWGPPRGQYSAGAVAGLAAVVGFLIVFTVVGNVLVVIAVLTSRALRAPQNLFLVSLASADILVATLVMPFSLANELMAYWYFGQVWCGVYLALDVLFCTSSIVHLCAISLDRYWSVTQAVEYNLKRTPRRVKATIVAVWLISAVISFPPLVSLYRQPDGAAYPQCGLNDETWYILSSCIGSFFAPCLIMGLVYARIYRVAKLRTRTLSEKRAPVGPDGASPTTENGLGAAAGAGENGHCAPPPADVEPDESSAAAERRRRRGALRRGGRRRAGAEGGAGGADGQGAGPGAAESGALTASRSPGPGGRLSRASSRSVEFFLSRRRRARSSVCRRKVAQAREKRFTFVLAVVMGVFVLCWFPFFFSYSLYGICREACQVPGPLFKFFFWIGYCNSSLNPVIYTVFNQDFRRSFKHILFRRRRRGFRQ

[5] = biological target: Motilin receptor (Homo sapiens) (UniProt O43193); test: Inhibition of Motilin at 10.0 µM in the Eurofins Panlabs Safety Screen; settings: Compound concentration 10.0 uM
[6] = biological target: Beta-3 adrenergic receptor (Homo sapiens) (UniProt P13945); settings: Compound concentration 10.0 uM
[7] = biological target: T2, Alpha-2B adrenergic receptor (Homo sapiens) (UniProt P18089); settings: Compound concentration 10.0 uM
T2 sequence (whole entry): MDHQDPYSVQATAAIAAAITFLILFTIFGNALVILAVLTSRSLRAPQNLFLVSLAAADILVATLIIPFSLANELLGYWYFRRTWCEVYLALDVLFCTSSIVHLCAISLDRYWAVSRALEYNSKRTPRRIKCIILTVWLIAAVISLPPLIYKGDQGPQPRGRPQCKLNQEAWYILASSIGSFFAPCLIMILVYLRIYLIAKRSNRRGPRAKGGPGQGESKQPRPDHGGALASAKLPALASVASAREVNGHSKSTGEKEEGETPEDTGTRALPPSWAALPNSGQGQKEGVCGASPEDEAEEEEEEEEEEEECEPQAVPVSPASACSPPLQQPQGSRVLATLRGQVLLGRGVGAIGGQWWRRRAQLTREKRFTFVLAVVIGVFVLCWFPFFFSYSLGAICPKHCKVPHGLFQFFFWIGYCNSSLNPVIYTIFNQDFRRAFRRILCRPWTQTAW

[8] = biological target: Muscarinic acetylcholine receptor M5 (Homo sapiens) (UniProt P08912); settings: Compound concentration 10.0 uM
[9] = biological target: T3, Alpha-2A adrenergic receptor (Homo sapiens) (UniProt P08913); test: Inhibition of Adrenergic alpha2A at 10.0 µM in the Eurofins Panlabs Safety Screen; settings: Compound concentration 10.0 uM
T3 sequence (whole entry): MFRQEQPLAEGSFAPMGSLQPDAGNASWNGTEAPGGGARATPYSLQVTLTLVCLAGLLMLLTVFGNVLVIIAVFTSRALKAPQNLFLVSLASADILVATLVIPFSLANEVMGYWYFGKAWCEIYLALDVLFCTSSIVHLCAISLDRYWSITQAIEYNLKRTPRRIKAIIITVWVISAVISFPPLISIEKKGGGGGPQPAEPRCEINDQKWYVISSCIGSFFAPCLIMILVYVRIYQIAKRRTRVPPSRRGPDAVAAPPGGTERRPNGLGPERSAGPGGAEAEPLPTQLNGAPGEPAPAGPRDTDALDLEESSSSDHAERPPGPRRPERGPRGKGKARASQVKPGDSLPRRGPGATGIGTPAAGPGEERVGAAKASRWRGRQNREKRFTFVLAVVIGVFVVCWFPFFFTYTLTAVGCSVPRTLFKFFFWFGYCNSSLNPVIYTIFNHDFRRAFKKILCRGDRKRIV

[10] = biological target: Aldo-keto reductase family 1 member B1 (Rattus norvegicus) (UniProt P07943); test: Inhibition of Aldose Reductase at 10.0 µM in the Eurofins Panlabs Safety Screen; settings: Compound concentration 10.0 uM
[11] = biological target: 5-hydroxytryptamine receptor 3A (Homo sapiens) (UniProt P46098); settings: Compound concentration 10.0 uM
[12] = biological target: Adenosine receptor A3 (Homo sapiens) (UniProt P0DMS8); test: Inhibition of Adenosine A3 at 10.0 µM in the Eurofins Panlabs Safety Screen; settings: Compound concentration 10.0 uM
[13] = biological target: Sodium-dependent serotonin transporter (Homo sapiens) (UniProt P31645); settings: Compound concentration 10.0 uM
[14] = biological target: Sigma non-opioid intracellular receptor 1 (Homo sapiens) (UniProt Q99720); settings: Compound concentration 10.0 uM
[15] = biological target: T4, Muscarinic acetylcholine receptor M4 (Homo sapiens, UniProt P08173); test: GPCRScan assay: inhibition of M4; design: radioligand conc. used [nm] 0.3 – 1.0, parental cells stable CHO
T4 sequence (P08173 whole entry): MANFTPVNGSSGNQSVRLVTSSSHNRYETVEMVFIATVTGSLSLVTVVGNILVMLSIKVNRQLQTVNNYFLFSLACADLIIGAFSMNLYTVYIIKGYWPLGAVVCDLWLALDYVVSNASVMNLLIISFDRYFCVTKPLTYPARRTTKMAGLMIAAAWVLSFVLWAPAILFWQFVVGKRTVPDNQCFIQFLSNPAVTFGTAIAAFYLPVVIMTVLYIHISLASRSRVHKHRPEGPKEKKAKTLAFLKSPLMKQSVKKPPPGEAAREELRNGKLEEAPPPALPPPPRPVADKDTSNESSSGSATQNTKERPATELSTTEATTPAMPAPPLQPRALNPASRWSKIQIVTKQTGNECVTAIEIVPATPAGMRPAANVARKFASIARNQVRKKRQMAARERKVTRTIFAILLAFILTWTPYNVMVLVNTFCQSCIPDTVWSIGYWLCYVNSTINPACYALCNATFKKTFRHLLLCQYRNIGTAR

[16] = biological target: Neuronal acetylcholine receptor; alpha3/beta4 (Homo sapiens) (UniProt P30926+P32297); test: Inhibition of Nicotinic Acetylcholine alpha3beta4 at 10.0 µM in the Eurofins Panlabs Safety Screen; type: protein-complex assay; settings: Compound concentration 10.0 uM

5-hydroxytryptamine receptor 3A (Homo sapiens), sequence (P46098 whole entry): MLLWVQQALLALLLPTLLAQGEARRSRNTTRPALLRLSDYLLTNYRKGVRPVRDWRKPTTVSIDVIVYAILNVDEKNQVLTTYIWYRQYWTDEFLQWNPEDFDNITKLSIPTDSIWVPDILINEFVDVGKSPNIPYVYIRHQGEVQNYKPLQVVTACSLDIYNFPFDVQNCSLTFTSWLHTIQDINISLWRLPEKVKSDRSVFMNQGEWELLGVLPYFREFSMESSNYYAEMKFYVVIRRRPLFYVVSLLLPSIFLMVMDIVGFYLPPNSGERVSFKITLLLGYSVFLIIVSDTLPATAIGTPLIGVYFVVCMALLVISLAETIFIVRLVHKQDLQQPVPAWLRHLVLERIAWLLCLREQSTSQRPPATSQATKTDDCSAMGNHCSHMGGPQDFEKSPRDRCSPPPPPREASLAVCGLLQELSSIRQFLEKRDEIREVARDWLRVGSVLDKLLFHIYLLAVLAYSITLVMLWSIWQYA
Muscarinic acetylcholine receptor M3, sequence (P20309 whole entry, looked up): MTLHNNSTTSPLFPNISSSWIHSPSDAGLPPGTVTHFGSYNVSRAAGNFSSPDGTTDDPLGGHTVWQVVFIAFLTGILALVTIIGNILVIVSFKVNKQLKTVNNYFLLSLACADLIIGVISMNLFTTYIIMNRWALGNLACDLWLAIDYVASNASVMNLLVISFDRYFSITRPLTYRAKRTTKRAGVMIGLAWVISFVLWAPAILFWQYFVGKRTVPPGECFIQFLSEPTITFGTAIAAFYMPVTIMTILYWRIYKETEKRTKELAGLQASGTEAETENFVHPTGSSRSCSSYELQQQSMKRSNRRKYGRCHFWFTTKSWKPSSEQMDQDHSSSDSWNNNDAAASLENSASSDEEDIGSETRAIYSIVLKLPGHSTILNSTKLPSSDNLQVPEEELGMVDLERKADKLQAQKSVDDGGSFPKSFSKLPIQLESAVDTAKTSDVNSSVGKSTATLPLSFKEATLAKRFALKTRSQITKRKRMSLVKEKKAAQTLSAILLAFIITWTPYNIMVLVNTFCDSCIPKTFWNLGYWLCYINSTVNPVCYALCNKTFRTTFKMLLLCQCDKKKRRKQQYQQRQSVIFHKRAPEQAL
Beta-3 adrenergic receptor (Homo sapiens), sequence (P13945 whole entry, looked up): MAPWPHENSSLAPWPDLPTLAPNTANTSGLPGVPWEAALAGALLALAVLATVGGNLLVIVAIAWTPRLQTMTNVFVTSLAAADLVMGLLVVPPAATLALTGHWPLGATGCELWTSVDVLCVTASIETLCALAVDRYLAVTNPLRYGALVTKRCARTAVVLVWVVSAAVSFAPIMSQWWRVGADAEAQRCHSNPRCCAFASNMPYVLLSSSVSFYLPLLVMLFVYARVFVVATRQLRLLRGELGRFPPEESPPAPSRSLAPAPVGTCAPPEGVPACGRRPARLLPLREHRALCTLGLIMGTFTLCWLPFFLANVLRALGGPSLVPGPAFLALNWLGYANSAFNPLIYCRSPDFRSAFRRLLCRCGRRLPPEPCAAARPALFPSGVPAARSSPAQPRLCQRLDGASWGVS
Sodium-dependent serotonin transporter (Homo sapiens), sequence (P31645 whole entry, looked up): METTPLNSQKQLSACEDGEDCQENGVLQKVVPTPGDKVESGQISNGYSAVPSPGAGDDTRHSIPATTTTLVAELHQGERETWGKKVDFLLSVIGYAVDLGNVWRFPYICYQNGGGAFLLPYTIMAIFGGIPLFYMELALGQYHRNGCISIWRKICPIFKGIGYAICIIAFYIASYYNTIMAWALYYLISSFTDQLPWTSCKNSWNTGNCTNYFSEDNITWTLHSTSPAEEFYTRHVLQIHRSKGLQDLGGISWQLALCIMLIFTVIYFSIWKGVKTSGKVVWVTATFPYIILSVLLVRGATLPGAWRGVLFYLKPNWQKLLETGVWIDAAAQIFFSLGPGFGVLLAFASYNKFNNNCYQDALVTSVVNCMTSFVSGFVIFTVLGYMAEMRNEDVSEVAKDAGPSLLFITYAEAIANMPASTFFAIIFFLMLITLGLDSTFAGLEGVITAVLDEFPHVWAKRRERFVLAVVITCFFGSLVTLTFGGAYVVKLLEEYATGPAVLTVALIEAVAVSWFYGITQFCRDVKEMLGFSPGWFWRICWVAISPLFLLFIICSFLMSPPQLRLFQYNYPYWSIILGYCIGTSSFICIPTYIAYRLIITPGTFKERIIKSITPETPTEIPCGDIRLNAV
Sodium-dependent dopamine transporter, sequence (Q01959 whole entry): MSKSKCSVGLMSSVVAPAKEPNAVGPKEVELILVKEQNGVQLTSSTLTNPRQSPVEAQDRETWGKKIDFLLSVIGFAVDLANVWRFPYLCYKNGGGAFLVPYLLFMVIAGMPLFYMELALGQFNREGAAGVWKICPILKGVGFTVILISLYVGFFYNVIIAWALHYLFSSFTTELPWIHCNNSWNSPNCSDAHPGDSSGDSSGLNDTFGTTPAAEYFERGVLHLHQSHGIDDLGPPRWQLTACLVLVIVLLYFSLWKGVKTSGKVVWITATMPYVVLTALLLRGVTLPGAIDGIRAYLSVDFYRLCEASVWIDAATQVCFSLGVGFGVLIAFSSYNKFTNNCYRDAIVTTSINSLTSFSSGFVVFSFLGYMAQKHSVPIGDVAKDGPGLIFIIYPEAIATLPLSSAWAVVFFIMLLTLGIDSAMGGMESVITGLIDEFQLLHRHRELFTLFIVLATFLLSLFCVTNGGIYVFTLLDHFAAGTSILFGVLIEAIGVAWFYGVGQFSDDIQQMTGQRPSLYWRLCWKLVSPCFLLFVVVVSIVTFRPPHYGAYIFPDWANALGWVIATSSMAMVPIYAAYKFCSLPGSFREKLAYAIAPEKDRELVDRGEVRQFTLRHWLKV
Sigma non-opioid intracellular receptor 1 (Homo sapiens), sequence (Q99720 whole entry): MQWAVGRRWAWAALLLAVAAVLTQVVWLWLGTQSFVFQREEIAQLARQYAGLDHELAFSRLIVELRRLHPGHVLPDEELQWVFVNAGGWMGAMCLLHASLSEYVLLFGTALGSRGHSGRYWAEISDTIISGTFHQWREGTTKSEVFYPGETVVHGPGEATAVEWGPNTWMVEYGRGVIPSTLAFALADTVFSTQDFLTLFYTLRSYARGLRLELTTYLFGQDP
Muscarinic acetylcholine receptor M5 (Homo sapiens), sequence (P08912 whole entry): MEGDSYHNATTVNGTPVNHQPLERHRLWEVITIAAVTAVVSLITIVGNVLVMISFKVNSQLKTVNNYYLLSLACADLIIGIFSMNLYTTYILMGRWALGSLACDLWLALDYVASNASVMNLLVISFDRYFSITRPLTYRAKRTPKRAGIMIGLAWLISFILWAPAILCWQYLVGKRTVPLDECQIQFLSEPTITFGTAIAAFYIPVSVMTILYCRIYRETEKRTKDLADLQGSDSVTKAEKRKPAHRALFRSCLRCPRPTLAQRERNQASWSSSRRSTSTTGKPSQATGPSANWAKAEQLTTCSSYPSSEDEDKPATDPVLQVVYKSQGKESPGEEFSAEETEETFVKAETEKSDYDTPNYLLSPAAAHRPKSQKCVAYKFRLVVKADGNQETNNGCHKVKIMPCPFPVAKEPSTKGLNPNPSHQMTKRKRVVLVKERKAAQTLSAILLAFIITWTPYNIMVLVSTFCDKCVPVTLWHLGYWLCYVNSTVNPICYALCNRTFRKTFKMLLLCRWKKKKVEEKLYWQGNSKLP
Adenosine receptor A3 (Homo sapiens), sequence (P0DMS8 whole entry): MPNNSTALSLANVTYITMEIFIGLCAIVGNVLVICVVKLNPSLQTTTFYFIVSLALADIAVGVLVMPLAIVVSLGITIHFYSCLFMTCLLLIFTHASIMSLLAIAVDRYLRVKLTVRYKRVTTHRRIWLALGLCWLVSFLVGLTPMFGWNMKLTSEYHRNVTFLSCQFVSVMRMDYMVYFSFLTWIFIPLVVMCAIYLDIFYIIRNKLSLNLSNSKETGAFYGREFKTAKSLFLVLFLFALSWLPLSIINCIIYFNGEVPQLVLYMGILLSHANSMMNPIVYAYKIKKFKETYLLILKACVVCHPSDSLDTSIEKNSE
Motilin receptor (Homo sapiens), sequence (O43193 whole entry): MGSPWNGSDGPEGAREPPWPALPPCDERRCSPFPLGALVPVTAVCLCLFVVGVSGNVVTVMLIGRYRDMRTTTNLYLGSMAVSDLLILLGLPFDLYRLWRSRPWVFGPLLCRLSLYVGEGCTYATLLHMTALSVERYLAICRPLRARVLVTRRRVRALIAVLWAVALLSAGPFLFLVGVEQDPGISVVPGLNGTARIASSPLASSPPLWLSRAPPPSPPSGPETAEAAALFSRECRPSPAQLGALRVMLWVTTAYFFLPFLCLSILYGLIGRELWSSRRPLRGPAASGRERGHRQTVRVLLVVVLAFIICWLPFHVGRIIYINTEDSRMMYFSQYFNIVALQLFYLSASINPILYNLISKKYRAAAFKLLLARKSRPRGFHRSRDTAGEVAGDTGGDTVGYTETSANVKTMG

Compound | inhibition [1] [%] | inhibition [2] [%] | inhibition [3] [%] | inhibition [4] [%] | inhibition [5] [%] | inhibition [6] [%] | inhibition [7] [%] | inhibition [8] [%] | inhibition [9] [%] | inhibition [10] [%] | inhibition [11] [%] | inhibition [12] [%] | inhibition [13] [%] | inhibition [14] [%] | Ki ([15]; read-out: Ki) [nM] | Ki ([15]; read-out: pKi (converted)) [nM] | inhibition [16] [%]
O=C1CCC(N2Cc3cc(C4CCN(C(=O)CCCCCN5CCC(c6ccc(Oc7nn8cnnc8c8c7CCCC8)cc6)CC5)CC4)ccc3C2=O)C(=O)N1 (centres undefined) | 55 | 50.7 | 25 | 79 | 6 | 27.8 | 8.76 | 71 | 28 | 32 | 22.9 | 16 | 45.8 | 28.9 | 632 | 617 | 24
O=C1NCCCC1N1Cc2cc(C3CCN(C(=O)CCCCCN4CCC(c5ccc(Oc6nn7cnnc7c7c6CCCC7)cc5)CC4)CC3)ccc2C1=O (centres undefined) | 51.5 | 51.4 | 10 | 62 | 10 | 7.19 | 8.66 | 41.8 | 32 | 29 | 23.8 | 21 | 9.58 | 28.4 | 894 | 891 | 6
